How the values were obtained:
[1] = test system: broadleaf species: pigweed, velvetleaf, morningglory; experiment: Greenhouse preemergence herbicide test, broadleaves; assay type: in vivo; settings: two weeks after treatment, 20160 min
Protocol: (§1) To illustrate the preemergence herbicidal efficiency of the alkyl-substituted 2-chloro-N-propargylacetanilides of this invention, test formulations are prepared of each compound by mixing 20 ml of an acetone solution containing 0.125 g of chemical with 20 ml of water containing 0.01 g of Triton X-155 surfactant. The resultant formulations contain 3125 ppm of test compound, 50% by volume of acetone and 0.025% by weight of surfactant. Appropriate lower concentrations are obtained by diluting this formulation with surfactant-acetone solution so that the concentration of adjuvants is maintained at the original levels.
(§2) Seeds of three broadleaf and three grass species are planted in soil contained in 10 inch × 8 inch × 3 inch aluminum pans filled with 1.5 inches of composted soil. The broadleaf species are pigweed (Amaranthus retroflexus), velvetleaf (Abutilon theophrasti), and morningglory (Ipomea coccinea); the grasses are red millet (Panicum milliacem), green foxtail (Setaria viridis) and Japanese millet (Echinochloa frumentacea).
(§3) The seeded pans are sprayed so that the soil surface is uniformly covered with dilutions of the stock formulation providing dosage rates of the test compounds as shown in the following table.
(§4) Two weeks after treatment, percent control (plant kill) at each dosage rate is estimated with results as follows: […]

Corn = experiment: Field preemergence test, phytotoxic effects on crop; assay type: in vivo, sweet corn
Description: (§5) Test plots of fertilized, light sandy soil containing 0.7% organic matter are sprayed uniformly with aqueous suspensions prepared from emulsifiable concentrates containing 12%, by weight, of the test chemicals diluted to provide dosage rates of the test compounds corresponding to 2.0, 1.0, 0.5, and 0.25 pound per acre (lb/A). The plots are then sown with seeds of the following crop plants: sweet corn, cotton (Coker 413) and soybeans, var. Davis. Seeds of the following weed plants are planted: redroot pigweed, prickly sida, common lambsquarter, goosegrass and giant foxtail.
(§6) Three to four weeks after planting, percent control (plant kill) of the test plants is estimated, from a rating of 0 which denotes no injury to the plant up to 100 which denotes complete destruction. The herbicidal action of the test compounds obtained on the weed species is as follows:
(§7) Phytotoxic effects observed on the crop species is estimated with results as follows: […]

Prickly Sida = experiment: Field preemergence test, weed control; assay type: in vivo; settings: 3-4 weeks after planting
Description: as §5
(§8) Three to four weeks after planting, percent control (plant kill) of the test plants is estimated, from a rating of 0 which denotes no injury to the plant up to 100 which denotes complete destruction. The herbicidal action of the test compounds obtained on the weed species is as follows: […]

Goosegrass = experiment: Field preemergence test, weed control; assay type: in vivo; settings: 3-4 weeks after planting
Description: as §5, §8

Redroot Pigweed = experiment: Field preemergence test, weed control; assay type: in vivo; settings: 3-4 weeks after planting
Description: as §5, §8

Giant Foxtail = experiment: Field preemergence test, weed control; assay type: in vivo; settings: 3-4 weeks after planting
Description: as §5, §8

Common Lambsquarter = experiment: Field preemergence test, weed control; assay type: in vivo; settings: 3-4 weeks after planting
Description: as §5, §8

[2] = test system: grass species: red millet, green foxtail, Japanese millet; experiment: Greenhouse preemergence herbicide test, grasses; assay type: in vivo, Panicum milliacem, Setaria viridis, Echinochloa frumentacea; settings: pre-emergence, 336 h, two weeks after treatment; for pest or weed control at 69.4927 g/ha: 0.062 lb/A; for pest or weed control at 140.106 g/ha: 0.125 lb/A; for pest or weed control at 280.212 g/ha: 0.25 lb/A; for pest or weed control at 560.425 g/ha: 0.5 lb/A; for pest or weed control at 1120.85 g/ha: 1.0 lb/A
Protocol: as §1, §2, §3, §4

Soybeans = experiment: Field preemergence test, phytotoxic effects on crop; assay type: in vivo, var. Davis
Description: as §5, §6, §7

Cotton = experiment: as above; assay type: in vivo, cotton (Coker 413)
Description: as §5, §6, §7

| SMILES | % Control, Broadleaves ([1]; 0.5 lb/A) | % Control, Broadleaves ([1]; 1.0 lb/A) | % Crop Kill, Corn (Corn; 0.5 lb/A) | % Crop Kill, Corn (Corn; 1.0 lb/A) | % Crop Kill, Corn (Corn; 2.0 lb/A) | % Weed Control, Prickly Sida (Prickly Sida; 0.25 lb/A) | % Weed Control, Prickly Sida (Prickly Sida; 0.5 lb/A) | % Weed Control, Prickly Sida (Prickly Sida; 1.0 lb/A) | % Weed Control, Prickly Sida (Prickly Sida; 2.0 lb/A) | % Weed Control, Goosegrass (Goosegrass; 0.25 lb/A) | % Weed Control, Goosegrass (Goosegrass; 0.5 lb/A) | % Weed Control, Goosegrass (Goosegrass; 1.0 lb/A) | % Weed Control, Goosegrass (Goosegrass; 2.0 lb/A) | % Weed Control, Redroot Pigweed (Redroot Pigweed; 0.25 lb/A) | % Weed Control, Redroot Pigweed (Redroot Pigweed; 0.5 lb/A) | pest or weed control at 69.4927 g/ha [2] | pest or weed control at 140.106 g/ha [2] | pest or weed control at 280.212 g/ha [2] | pest or weed control at 560.425 g/ha [2] | pest or weed control at 1120.85 g/ha [2] | further results |
| --- | --- | --- | --- | --- | --- | --- | --- | --- | --- | --- | --- | --- | --- | --- | --- | --- | --- | --- | --- | --- | --- |
| C#CCN(C(=O)CCl)c1ccccc1C [Example 10, 2-Chloro-2'-methyl-N-propargylacetanilide] | 0% | 35% | 0% | 0% | 0% | 0% | 0% | 0% | 25% | 53% | 78% | 92% | 97% | 0% | 27% | 0% | 55% | 85% | 80% | 90% | % Control, Broadleaves ([1]; 0.062 lb/A): 0%; % Control, Broadleaves ([1]; 0.125 lb/A): 0%; % Control, Broadleaves ([1]; 0.25 lb/A): 0%; % Weed Control, Redroot Pigweed (Redroot Pigweed; 1.0 lb/A): 45%; % Weed Control, Redroot Pigweed (Redroot Pigweed; 2.0 lb/A): 67%; % Weed Control, Giant Foxtail (Giant Foxtail; 0.25 lb/A): 0%; % Weed Control, Giant Foxtail (Giant Foxtail; 0.5 lb/A): 20%; % Weed Control, Giant Foxtail (Giant Foxtail; 1.0 lb/A): 70%; % Weed Control, Giant Foxtail (Giant Foxtail; 2.0 lb/A): 80%; % Weed Control, Common Lambsquarter (Common Lambsquarter; 0.25 lb/A): 40%; % Weed Control, Common Lambsquarter (Common Lambsquarter; 0.5 lb/A): 60%; % Weed Control, Common Lambsquarter (Common Lambsquarter; 1.0 lb/A): 95%; % Weed Control, Common Lambsquarter (Common Lambsquarter; 2.0 lb/A): 95%; % Crop Kill, Soybeans (Soybeans; 0.5 lb/A): 0%; % Crop Kill, Soybeans (Soybeans; 1.0 lb/A): 0%; % Crop Kill, Soybeans (Soybeans; 2.0 lb/A): 0%; % Crop Kill, Cotton (Cotton; 0.5 lb/A): 0%; % Crop Kill, Cotton (Cotton; 1.0 lb/A): 3%; % Crop Kill, Cotton (Cotton; 2.0 lb/A): 3% |
| C#CCN(C(=O)CCl)c1ccccc1CC [Example 11, 2-Chloro-2'-ethyl-N-propargylacetanilide] | 0% | 35% | 0% | 0% | 0% | 0% | 13% | 33% | 57% | 62% | 82% | 100% | 100% | 33% | 75% | 0% | 55% | 80% | 90% | 95% | % Weed Control, Redroot Pigweed (Redroot Pigweed; 1.0 lb/A): 80%; % Weed Control, Redroot Pigweed (Redroot Pigweed; 2.0 lb/A): 98%; % Weed Control, Giant Foxtail (Giant Foxtail; 0.25 lb/A): 0%; % Weed Control, Giant Foxtail (Giant Foxtail; 0.5 lb/A): 23%; % Weed Control, Giant Foxtail (Giant Foxtail; 1.0 lb/A): 45%; % Weed Control, Giant Foxtail (Giant Foxtail; 2.0 lb/A): 90%; % Weed Control, Common Lambsquarter (Common Lambsquarter; 0.25 lb/A): 50%; % Weed Control, Common Lambsquarter (Common Lambsquarter; 0.5 lb/A): 70%; % Weed Control, Common Lambsquarter (Common Lambsquarter; 1.0 lb/A): 100%; % Weed Control, Common Lambsquarter (Common Lambsquarter; 2.0 lb/A): 100%; % Crop Kill, Soybeans (Soybeans; 0.5 lb/A): 0%; % Crop Kill, Soybeans (Soybeans; 1.0 lb/A): 0%; % Crop Kill, Soybeans (Soybeans; 2.0 lb/A): 3%; % Crop Kill, Cotton (Cotton; 0.5 lb/A): 0%; % Crop Kill, Cotton (Cotton; 1.0 lb/A): 10%; % Crop Kill, Cotton (Cotton; 2.0 lb/A): 18% |
| C#CCN(C(=O)CCl)c1c(C)cccc1C(C)C [Example 12, 2-Chloro-2'-methyl-6'-isopropyl-N-propargylacetanilide] | – | 0% | – | – | – | – | – | – | – | – | – | – | – | – | – | 45% | 65% | – | 70% | 90% | % Control, Broadleaves ([1]; 2.0 lb/A): 40%; pest or weed control at 2241.7 g/ha ([2]; 2.0 lb/A): 90% |
| C#CCN(C(=O)CCl)c1c(C(C)C)cccc1C(C)C [Example 13, 2-Chloro-2',6'-diisopropyl-N-propargylacetanilide] | – | 0% | – | – | – | – | – | – | – | – | – | – | – | – | – | – | 20% | 50% | 90% | 90% | – |
| C#CCN(C(=O)CCl)c1c(CC)cccc1C(C)C [Example 14, 2-Chloro-2'-ethyl-6'-isopropyl-N-propargylacetanilide] | – | 0% | – | – | – | – | – | – | – | – | – | – | – | – | – | – | 40% | 40% | 80% | 100% | – |
| C#CCN(C(=O)CCl)c1ccccc1C(C)C [Example 16, 2-Chloro-2'-isopropyl-N-propargylacetanilide] | – | 0% | – | – | – | – | – | – | – | – | – | – | – | – | – | – | – | 80% | 90% | 100% | – |

Source: patent publication US4001325A, “α-Chloroacetanilide selective herbicides” (Diamond Shamrock Corporation, priority 1973, dated 1977)
